The results in this text go back to patent US12275731B2, “Azaindole inhibitors of wild-type and mutant forms of LRRK2” (DANA-FARBER CANCER INSTITUTE, INC., priority 2018, dated 2025).

Molecules are shown by their SMILES.

Common to all, as to assay: KinomeScan profiling
What all share (assay type): binding

For one experiment, the target named is ERK3 (Homo sapiens, UniProt Q16659). The settings on record: ERK3, 1 μM; read-out: % control. The method, then:
(§1) The kinase selectivity of inventive compounds 77, 96 and 101 was evaluated by KinomeScan®. KinomeScan® analysis was performed against a near comprehensive panel of 468 kinases. The control percentage (% control) for inventive compounds at 1 μM in DMSO was determined by Equation 1: % control=(inventive compound−positive control)/(negative control−positive control)×100%, Equation 1
(§2) wherein the positive control is a compound with a % control value of 0% relative light units (RLU), and the negative control (i.e., DMSO) has % control value of 100% RLU. The enzyme selectivity in the present invention is defined as follows: inventive compounds are considered active for an enzyme when the observed % control is less than 35% (<35%).

For a further experiment, the target named is T1, TEC (Homo sapiens, UniProt P42680).
T1 sequence (P42680 1-631): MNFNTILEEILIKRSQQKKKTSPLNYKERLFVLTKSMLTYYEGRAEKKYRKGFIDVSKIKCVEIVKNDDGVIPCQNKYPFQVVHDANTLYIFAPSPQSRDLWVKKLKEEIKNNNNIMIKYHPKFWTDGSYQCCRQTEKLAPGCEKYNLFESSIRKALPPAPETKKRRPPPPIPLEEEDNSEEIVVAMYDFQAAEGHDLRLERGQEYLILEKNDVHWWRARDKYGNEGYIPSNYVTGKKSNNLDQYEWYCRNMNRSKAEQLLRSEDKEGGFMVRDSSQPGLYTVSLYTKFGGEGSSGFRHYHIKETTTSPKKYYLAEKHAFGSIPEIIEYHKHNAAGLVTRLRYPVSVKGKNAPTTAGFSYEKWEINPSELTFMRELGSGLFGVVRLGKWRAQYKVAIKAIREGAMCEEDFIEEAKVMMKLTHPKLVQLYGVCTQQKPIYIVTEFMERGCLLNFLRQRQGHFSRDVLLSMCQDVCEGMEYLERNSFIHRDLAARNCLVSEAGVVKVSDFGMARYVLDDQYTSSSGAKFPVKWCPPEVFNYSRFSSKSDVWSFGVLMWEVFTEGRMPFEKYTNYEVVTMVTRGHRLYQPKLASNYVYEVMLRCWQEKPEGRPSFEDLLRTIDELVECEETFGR
The settings on record: read-out: % control. The method, then:
as §1, §2

In the next experiment the target is T2, YSK4 (Homo sapiens, UniProt Q56UN5).
T2 sequence (Q56UN5 1-1328): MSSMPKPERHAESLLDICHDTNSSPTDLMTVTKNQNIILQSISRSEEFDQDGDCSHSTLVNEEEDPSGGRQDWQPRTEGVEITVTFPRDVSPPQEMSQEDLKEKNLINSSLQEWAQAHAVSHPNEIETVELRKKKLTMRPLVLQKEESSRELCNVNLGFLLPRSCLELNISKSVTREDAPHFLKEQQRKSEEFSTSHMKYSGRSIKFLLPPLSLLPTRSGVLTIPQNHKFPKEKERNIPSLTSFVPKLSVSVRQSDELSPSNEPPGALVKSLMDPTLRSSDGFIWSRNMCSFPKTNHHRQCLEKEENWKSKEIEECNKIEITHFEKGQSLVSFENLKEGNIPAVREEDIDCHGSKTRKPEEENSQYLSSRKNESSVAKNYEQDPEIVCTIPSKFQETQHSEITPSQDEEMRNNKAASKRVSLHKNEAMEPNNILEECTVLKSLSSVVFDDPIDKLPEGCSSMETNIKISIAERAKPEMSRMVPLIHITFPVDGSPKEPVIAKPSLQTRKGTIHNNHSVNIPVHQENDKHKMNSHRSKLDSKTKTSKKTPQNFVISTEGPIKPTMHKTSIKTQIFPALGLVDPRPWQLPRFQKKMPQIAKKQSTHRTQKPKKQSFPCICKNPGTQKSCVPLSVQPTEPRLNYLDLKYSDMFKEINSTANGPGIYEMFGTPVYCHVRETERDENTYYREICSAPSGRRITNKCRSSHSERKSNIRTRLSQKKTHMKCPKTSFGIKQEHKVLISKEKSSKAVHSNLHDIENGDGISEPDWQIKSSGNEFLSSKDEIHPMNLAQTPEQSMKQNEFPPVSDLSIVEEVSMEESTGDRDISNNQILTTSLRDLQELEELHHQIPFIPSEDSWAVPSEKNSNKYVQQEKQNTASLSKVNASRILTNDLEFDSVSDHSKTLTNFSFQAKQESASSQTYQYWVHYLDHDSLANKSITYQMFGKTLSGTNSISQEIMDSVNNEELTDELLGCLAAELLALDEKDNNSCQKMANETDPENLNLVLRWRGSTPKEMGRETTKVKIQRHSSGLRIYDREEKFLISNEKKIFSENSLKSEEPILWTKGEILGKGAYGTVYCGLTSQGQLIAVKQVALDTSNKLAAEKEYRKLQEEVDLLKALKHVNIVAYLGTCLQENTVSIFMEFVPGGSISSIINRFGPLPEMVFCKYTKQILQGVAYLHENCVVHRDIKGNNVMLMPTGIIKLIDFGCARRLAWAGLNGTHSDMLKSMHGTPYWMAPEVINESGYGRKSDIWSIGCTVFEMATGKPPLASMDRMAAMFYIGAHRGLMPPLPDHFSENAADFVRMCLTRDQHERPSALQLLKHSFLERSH
The settings on record: YSK4, 1 μM; read-out: % control. The method, then:
as §1, §2

Chain of ERK3 (Q16659 whole entry): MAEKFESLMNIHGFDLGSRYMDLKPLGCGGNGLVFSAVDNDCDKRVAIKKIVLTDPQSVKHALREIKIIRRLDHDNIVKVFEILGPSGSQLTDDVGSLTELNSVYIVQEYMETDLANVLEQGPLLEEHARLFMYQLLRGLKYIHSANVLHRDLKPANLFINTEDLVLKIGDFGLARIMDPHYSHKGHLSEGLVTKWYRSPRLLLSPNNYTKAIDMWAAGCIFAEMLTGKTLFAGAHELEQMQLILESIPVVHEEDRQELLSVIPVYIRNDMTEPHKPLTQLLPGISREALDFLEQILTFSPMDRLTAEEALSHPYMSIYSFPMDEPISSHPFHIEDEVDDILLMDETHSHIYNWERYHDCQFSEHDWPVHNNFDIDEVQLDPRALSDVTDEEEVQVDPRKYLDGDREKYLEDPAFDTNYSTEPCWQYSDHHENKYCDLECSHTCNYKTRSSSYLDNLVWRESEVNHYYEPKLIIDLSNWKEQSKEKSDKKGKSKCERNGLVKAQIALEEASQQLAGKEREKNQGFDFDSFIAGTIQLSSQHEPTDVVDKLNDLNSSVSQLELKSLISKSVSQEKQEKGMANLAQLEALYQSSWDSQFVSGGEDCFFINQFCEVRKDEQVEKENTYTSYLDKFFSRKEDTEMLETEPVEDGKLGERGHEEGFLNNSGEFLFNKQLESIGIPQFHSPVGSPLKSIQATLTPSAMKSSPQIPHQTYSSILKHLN

`CNc1c(-c2ccc(C(=O)N3CCC(N4CCOCC4)CC3)cc2)cnc2[nH]cc(Cl)c12` [Compound 96, (4-(3-chloro-4-(methylamino)-1H-pyrrolo[2,3-b]pyridin-5-yl)phenyl)(4-morpholinopiperidin-1-yl)methanone]: the values for the remaining binding at 1 µM on ERK3, at TEC and at YSK4 were 85%, 100% and 2.2%, respectively.
For the compound `O=C(c1ccc(-c2cnc3[nH]cc(Cl)c3c2NC2CCCC2)cc1)N1CCC(N2CCOCC2)CC1` [Compound 101, (4-(3-chloro-4-(cyclopentylamino)-1H-pyrrolo[2,3-b]pyridin-5-yl)phenyl)(4-morpholinopiperidin-1-yl)methanone], the remaining binding at 1 µM on ERK3 came to 100%; on TEC it was 93%; on YSK4, 63%.
`CNc1c(-c2cnn([C@H]3CCN(C(C)=O)C[C@@H]3F)c2)cnc2[nH]cc(Cl)c12` [Compound 77, 1-((3S,4S)-4-(4-(3-chloro-4-(methylamino)-1H-pyrrolo[2,3-b]pyridin-5-yl)-1H-pyrazol-1-yl)-3-fluoropiperidin-1-yl)ethan-1-one]: the values for the remaining binding at 1 µM on ERK3, on TEC and at YSK4 were 87%, 100% and 2.6%, respectively.
